# From patent US20220389515A1, “USE OF BIOMARKERS TO PREDICT CLINICAL SENSITIVITY TO 2-(4-CHLOROPHENYL)-N-((2-(2,6-DIOXOPIPERIDIN-3-YL)-1-OXOISOINDOLIN-5-YL)METHYL)-2,2-DIFLUOROACETAMIDE” (priority 2019, published 2022)
# Tests used:
# GCN2-mediated ISR = assay: Immunoblot analysis of integrated stress response and apoptosis markers; type: cell-based, human
# Experimental: (§1) The U937 GCN2−/− cell line is derived from a single clone of U937 parental cells stably infected with a lentiviral CRISPR vector targeting GCN2. […] Cells were incubated with DMSO or 200 nM Compound D and lysed at the indicated time points. Arrows pointing to bands in the blot on the right designate the cleaved forms of caspase-3. […] The U937 GCN2−/− cell line is derived from a single clone of U937 parental cells stably infected with a lentiviral CRISPR vector targeting GCN2. […] Cells were treated with DMSO or Compound D for 24 hours. On day 3 after Compound D treatment, cell proliferation was assessed by CTG. Result shown in all figure panels is representative of at least three biological replicates. Data in FIGS. 13C, 13D and 13E are shown as mean±SD, n=3 technical replicates.
# (§2) To determine if the activation of the ISR by Compound D is solely mediated by GCN2, the effect of GCN2 ablation on Compound D response was evaluated.
# GSPT1 = target: T1, GSPT1 (Homo sapiens, UniProt P15170+Q96SW2); assay: Tandem mass tag (TMT) quantitative mass spectrometry of the global proteome in KG-1; type: cell-based; conditions: 0.1 μM, 4 hours
# T1 construct: endogenous in cells; host or cells: KG-1 (TMT proteomics); KG1, U937 / U937-Cas9, MOLM-13, OCI-AML2 (immunoblots)
# T1 sequence (P15170 1-637 isoform P15170-3): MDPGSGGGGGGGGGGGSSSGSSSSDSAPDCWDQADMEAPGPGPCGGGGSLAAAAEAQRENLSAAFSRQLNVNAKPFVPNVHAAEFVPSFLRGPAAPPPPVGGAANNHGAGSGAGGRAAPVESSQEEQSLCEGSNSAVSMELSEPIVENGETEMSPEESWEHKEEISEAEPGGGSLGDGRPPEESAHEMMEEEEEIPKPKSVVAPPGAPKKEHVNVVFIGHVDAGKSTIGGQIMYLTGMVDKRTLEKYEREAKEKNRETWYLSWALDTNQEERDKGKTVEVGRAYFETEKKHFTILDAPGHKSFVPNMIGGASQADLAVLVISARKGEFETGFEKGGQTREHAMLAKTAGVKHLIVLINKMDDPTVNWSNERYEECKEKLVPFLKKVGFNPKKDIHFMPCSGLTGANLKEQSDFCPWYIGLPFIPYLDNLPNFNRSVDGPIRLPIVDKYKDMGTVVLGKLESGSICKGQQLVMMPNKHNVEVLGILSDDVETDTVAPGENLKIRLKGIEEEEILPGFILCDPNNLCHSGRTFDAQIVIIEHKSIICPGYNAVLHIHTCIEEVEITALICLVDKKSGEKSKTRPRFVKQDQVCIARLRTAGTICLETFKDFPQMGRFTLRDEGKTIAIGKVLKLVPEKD
# T1 sequence (Q96SW2 whole entry): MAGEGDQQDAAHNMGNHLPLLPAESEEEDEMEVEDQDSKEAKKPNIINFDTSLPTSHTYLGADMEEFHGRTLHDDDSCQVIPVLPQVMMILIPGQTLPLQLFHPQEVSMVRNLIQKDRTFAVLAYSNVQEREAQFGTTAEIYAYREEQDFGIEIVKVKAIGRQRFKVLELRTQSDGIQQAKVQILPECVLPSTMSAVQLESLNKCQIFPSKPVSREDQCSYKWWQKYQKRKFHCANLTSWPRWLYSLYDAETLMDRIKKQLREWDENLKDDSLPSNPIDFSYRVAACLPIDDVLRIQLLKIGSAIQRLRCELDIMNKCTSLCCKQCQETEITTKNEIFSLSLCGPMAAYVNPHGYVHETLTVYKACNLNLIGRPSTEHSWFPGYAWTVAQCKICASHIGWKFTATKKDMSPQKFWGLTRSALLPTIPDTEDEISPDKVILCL
# T1 sequence (Q16531 whole entry partner): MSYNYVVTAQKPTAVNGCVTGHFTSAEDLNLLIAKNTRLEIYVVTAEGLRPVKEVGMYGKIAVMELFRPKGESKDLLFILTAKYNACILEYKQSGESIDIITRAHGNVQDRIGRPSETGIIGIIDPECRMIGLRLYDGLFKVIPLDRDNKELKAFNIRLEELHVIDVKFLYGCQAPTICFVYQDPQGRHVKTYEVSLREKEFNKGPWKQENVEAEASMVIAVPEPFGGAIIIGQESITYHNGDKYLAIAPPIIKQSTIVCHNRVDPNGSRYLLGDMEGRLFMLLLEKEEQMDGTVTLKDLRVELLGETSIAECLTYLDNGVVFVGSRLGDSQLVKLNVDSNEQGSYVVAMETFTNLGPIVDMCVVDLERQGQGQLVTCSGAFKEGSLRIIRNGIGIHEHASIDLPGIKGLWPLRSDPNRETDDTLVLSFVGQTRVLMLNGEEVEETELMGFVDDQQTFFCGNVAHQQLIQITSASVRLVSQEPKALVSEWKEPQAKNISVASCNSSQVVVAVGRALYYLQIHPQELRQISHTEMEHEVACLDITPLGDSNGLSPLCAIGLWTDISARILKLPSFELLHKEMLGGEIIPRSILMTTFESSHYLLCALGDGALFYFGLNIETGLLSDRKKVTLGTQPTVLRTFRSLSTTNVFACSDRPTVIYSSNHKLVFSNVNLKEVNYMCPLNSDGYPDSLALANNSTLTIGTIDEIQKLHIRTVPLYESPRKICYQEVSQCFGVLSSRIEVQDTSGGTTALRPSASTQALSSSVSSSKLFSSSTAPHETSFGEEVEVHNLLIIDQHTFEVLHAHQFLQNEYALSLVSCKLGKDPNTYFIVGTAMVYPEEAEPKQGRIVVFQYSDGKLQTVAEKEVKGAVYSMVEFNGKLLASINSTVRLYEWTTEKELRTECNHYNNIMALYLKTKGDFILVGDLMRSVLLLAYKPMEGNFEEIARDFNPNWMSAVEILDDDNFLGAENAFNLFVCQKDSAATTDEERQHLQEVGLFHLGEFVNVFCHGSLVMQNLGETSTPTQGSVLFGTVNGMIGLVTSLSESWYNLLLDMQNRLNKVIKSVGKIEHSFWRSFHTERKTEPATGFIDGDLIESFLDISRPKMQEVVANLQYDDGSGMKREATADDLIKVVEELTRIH
# Experimental: FIG. 2A illustrates the volcano plot of differentially abundant proteins in response to Compound D treatment relative to the DMSO control. KG1 cells were treated with DMSO or 100 nM Compound D for 4 hours and subjected to TMT proteomics analysis. The X-axis denotes the log 2-fold change of Compound D versus the DMSO control for each protein. P-values were corrected for multiple hypothesis testing using the Benjamini-Hoschberg method to arrive at an adjusted-P-value (adj-P, also known as a false discovery rate). The y-axis denotes the −log 10 (adj-P) values indicating statistical significance such that proteins lying above the dotted red line are statistically significant findings with adjusted P-values<0.05. FIG. 2B illustrates the immunoblot analysis of KG1 and U937 cells treated with DMSO or Compound D for 4 hours. Where indicated, cells were pretreated with Bortezomib or MLN4924 for 30 minutes. […]
# Like all other cereblon modulators, Compound D contains a glutarimide ring (FIG. 1A) that can bind cereblon and redirect it to target neosubstrates for degradation. Thus, the effect of Compound D on the global proteome in AML cell line KG-1 was assessed using tandem mass tag (TMT) quantitative mass spectrometry.
# [1] = target: T2, HA-tagged GSPT1 and endogenous cereblon (Homo sapiens, UniProt P15170+Q96SW2); assay: Anti-HA immunoprecipitation of HA-tagged GSPT1 with endogenous cereblon in U937-Cas9 cells; type: cell-based; conditions: with MLN4924
# T2 construct: expressed in transfected cells; host or cells: U937-Cas9 cells stably expressing HA-tagged GSPT1 (cereblon endogenous); cells treated with MLN4924 and Compound D, anti-HA immunoprecipitation
# T2 sequence (P15170 1-637 isoform P15170-3): as the sequence (P15170 1-637 isoform P15170-3) above
# T2 sequence (Q96SW2 whole entry): as the sequence (Q96SW2 whole entry) above
# T2 sequence (Q16531 whole entry partner): as the sequence (Q16531 whole entry partner) above
# U937 Cas9 cell lines = assay: Cell proliferation assay (CTG, 5 days) in U937 cells after RNP electroporation knockout; type: cell-based, human
# Description: Next, the roles of additional negative regulators of mTOR were studied. To knockout the studied genes, an electroporation-based method was used where a ribonucleoprotein (RNP) consisting of the Cas9 protein and gene-targeting gRNA was directly delivered to the U937 cells. A crRNA-tracrRNA duplex was first prepared consisting of the crRNA with a 20 nt sequence specific to each target gene and the universal tracrRNA to guide the Cas9 nuclease to the genomic locus. The sgRNA sequences targeting CRBN, ATF4, GCN1, GCN2, DDIT4, TSC1, TSC2, or non-targeting (NT-1) and non-coding (NC-8) controls were selected from the Cellecta sgRNA library. After pre-coupling the Cas9 enzyme to the crRNA-tracrRNA duplex, the complex was mixed with one million U937 cells per sample in nucleofection solution (4D-Nucleofector X kit SE; Lonza). Cells were electroporated in a 4D nucleofector according to the manufacturer's instructions and plated into complete cell culture media.
# Then a cell proliferation assay was performed. Compound D dissolved in DMSO was injected into 96-well cell culture plates using a HP D300 digital dispenser in triplicate for each final Compound D concentration. […] After 5 days, cell proliferation was assessed using CTG (CellTiter-Glo) according to the manufacturer's instructions to assess the effects of Compound D on proliferation of each cell line.
# U937 GCN2-/- cells = assay: Immunoblot and proliferation (CTG, day 3) of U937 GCN2-/- cells re-expressing GCN2; type: cell-based, human; conditions: not with mutants T899A/T904A, K619R, F1143L/R1144L
# Experimental: as §1, §2
# [2] = test system: U937 Cas9 cell lines and OCI-AML2 Cas9 cell lines; assay: Cell proliferation assay (CTG, 5 days) in sgRNA knockout Cas9 lines; type: cell-based, human
# Experimental: Then, a cell proliferation assay was performed. Compound D dissolved in DMSO was injected into 96-well cell culture plates using a HP D300 digital dispenser in triplicate Compound D concentrations. One week after infection to knock-out the indicated genes, each of U937 Cas9 cell lines and OCI-AML2 Cas9 cell lines were plated in triplicate with 5000 cells in 100 μL complete culture media per well in the 96-well plates. After 5 days, cell proliferation was assessed using CTG (CellTiter-Glo) according to the manufacturer's instructions to assess the effects of Compound D on proliferation of each cell line.
compound,measurement,setting,value
"O=C1CCC(N2Cc3cc(CNC(=O)C(F)(F)c4ccc(Cl)cc4)ccc3C2=O)C(=O)N1 (centres unmarked) [Compound D, 2-(4-chlorophenyl)-N-((2-(2,6-dioxopiperidin-3-yl)-1-oxoisoindolin-5-yl)methyl)-2,2-difluoroacetamide]","activation of the ISR (eIF2a phosphorylation, ATF4 and targets)","GCN2-mediated ISR; U937 24 hours, KG-1 200 nM","triggered the rapid phosphorylation of eIF2a, accumulation of ATF4 and its transcriptional targets DDIT4, CHOP and ATF3"
same,apoptosis (cleaved caspase-3),"GCN2-mediated ISR; U937, KG-1 200 nM",subsequent induction of apoptosis
same,ISR activation and caspase-3 cleavage after GCN2 knockout,"GCN2-mediated ISR; U937 GCN2-/-, 24 hours","inhibited the phosphorylation of eIF2a, induction of ATF4 and its target gene DDIT4, and the cleavage of caspase-3"
same,GSPT1 protein abundance,GSPT1,significant reduction of GSPT1 protein abundance
same,effect on the rest of the proteome,GSPT1,minimal effect on the rest of the proteome
same,Compound D-induced interaction of HA-tagged GSPT1 with endogenous cereblon after TSC1 loss,[1],significantly reduced the interaction between HA-tagged GSPT1 and endogenous cereblon induced by Compound D
same,"anti-proliferative effects after depletion of GCN2, ATF4, GCN1, CRBN, DDIT4, TSC1, TSC2",U937 Cas9 cell lines; U937,diminished this effect
same,anti-proliferative effects in control cells,U937 Cas9 cell lines; U937 parental and non-coding (NC-8) controls,dose-dependent anti-proliferative effects
same,response after reintroduction of GCN2 wild-type,U937 GCN2-/- cells,significantly restored the response to Compound D
same,anti-proliferative effects after depletion of TSC1 and TSC2,[2]; U937,diminished this effect
same,anti-proliferative effects in control cells,"[2]; parental, sgNT-1 and sgNC-8 controls",dose-dependent anti-proliferative effects
